# Experimental data as given in patent US20230416266A1, “6,7-DIHYDRO-PYRANO[2,3-d]PYRIMIDINE INHIBITORS OF KRAS G12C MUTANT” (Merck Sharp & Dohme Corp., priority 2020, published 2023).
# Where two headings read alike, the source gives them in different places.
# What was measured:
# [1] = target: T1, Biotinylated KRAS G12C protein (KRAS G12C/C51S/C80L/C118S, SEQ ID NO: 1) (Homo sapiens, UniProt P01116, C118S/C51S/C80L/G12C); assay: SOS-catalyzed nucleotide exchange assay (TR-FRET); type: biochemical; details: in vitro apparent potency; preincubation time of 60 minutes prior to addition of SOS
# T1 construct: 183 amino acids; biotin on K10
# Procedure: The SOS-catalyzed nucleotide exchange assay utilizes a preformed complex of recombinant biotinylated KRAS protein containing G12C/C51S/C80L/C118S mutations (183 amino acids; biotin on K10; leader sequence which is an AviTag; referred to as SEQ ID NO: 1 or “Biotinylated KRAS G12C protein” hereafter), Bodipy-GDP, and Terbium-streptavidin. Compounds are added to this complex and then after 60 minutes, the mixture is treated with recombinant SOS protein and unlabeled GTP. Small molecule inhibitors stabilize the Bodipy-GDP complex whereas the untreated protein rapidly exchanges Bodipy-GDP for unlabeled GTP resulting in reduced TR-FRET signal.
# Biotinylated KRAS G12C protein (SEQ ID NO: 1) is diluted to 2 μM in an EDTA buffer (20 mM HEPES, 150 mM sodium chloride, 10 mM EDTA, and 0.01% Tween) and incubated at room temperature for one hour. This mixture is then further diluted to 90nM in an assay buffer (20 mM HEPES, 150 mM sodium chloride, 10 mM magnesium chloride, and 0.005% Tween) containing 15 nM of Terbium-Streptavidin (Invitrogen, catalog #PV3577) and 900 nM of Bodipy-GDP and incubated at room temperature for six hours. This solution is referred to as Biotinylated KRAS G12C mixture.
# Each test compound (10 mM stock in DMSO) is diluted in DMSO to make a 10-point, 3-fold dilution series in a 384-well low dead volume microplate (Labcyte, catalog #LP-0200). Once titrations are made, 10 nL of the diluted compounds is acoustically dispensed into a 384-well plate (Corning, catalog #3820) using an Echo 550 (Labcyte).
# Each well of the plate receives 3 μL Biotinylated KRAS G12C mixture that had been incubating for six hours and 3 μL of assay buffer using a BioRAPTR (Beckman Coulter) and is incubated at room temperature for 60 minutes. Each well then receives 3 μL of 240 nM recombinant human SOS protein and 9 mM GTP (Sigma, G8877) in assay buffer and is incubated at room temperature for 60 minutes.
# The time-resolved fluorescence resonance energy transfer signal of the plate is measured on an Envision (PerkinElmer) plate reader: Excitation filter=340 nm; emission1=495 nm; emission2=520 nm; dichroic mirror=D400/D505; delay time=100 μs. The signal of each well is determined as the ratio of the emission at 520 nm to that at 495 nm. Percent effect of each well is determined after normalization to control wells containing DMSO (no effect) or a saturating concentration of inhibitor (max effect). The apparent effect as a function of compound concentration is fit to a four parameter logistic equation.
# [2] = tested on: phosphorylation of Erk in NCI-H358 cells; assay: Cellular phospho-ERK assay; type: cell-based; details: 2 hour incubation, ratio of p-Erk vs total Erk, read-out: IC50 (nM) pERK (Cell)
# Procedure: NCI-H358 cells (ATCC® CRL-5807™) were cultured in T150 flask in growth medium (RPMI medium 1640-GlutaMAX™-I (ThermoFisher Scientific 61870) containing 10% fetal bovine serum (ThermoFisher Scientific 10091148)). The cells were harvested in growth medium after TrypLE (ThermoFisher scientific 12604021) digestion and were seeded in 384-well collagen coated cell culture plate (Corning 356702) at a density of 15,000 cells/well, and incubated at 37° C., 5% CO2 overnight. The compound dose-response titrations were prepared and appropriate amounts of compounds were dispensed in a 384-well intermediate plate using an Echo 550 liquid handler. RPMI medium 1640-GluiaMAX™-I were added to the intermediate plate and transferred to 384-well cell culture plate, which was incubated at 37° C., 5% CO2 for 2 hours. After removal of medium from the plate, cells were lysed in lysis buffer from Alpha SureFire® Ultra™ Multiplex p-Erk and total Erk assay kit (PerkinElmer MPSU-PIERK) containing Halt™ Protease and Phosphotase inhibitor cocktail (ThermoFisher Scientific 78446) at room temperature with constant shaking at 300 rpm for 30 minutes. The cell lysates were then transferred to OptiPlate-384 plate (PerkinElmer 6005620) and the phosphorylation of Erk and total Erk levels were detected by Alpha SureFire Ultra Multiplex p-Erk kit (PerkinElmer MPSU-PIERK) following the manufacturer's protocol. Assay plates were read on an EnVision Multimode Plate Reader (PerkinElmer), and the ratio of p-Erk vs total Erk in each well was used as the final readout. Dose response curves were analyzed using a 4-parameter logistic model to calculate IC50 values using spotfire software.
# T1 sequence (P01116 with tags, fused parts or gaps isoform P01116-2 G12C/C51S/C80L/C118S): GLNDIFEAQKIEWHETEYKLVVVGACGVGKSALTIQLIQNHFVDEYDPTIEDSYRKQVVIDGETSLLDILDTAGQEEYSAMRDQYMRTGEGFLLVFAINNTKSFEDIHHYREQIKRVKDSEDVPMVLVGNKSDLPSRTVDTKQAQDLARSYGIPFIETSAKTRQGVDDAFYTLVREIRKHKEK
Compound,IC50 [1] [nM],"IC50 ([2]; Homo sapiens, NCI-H358, 2 h) [nM]",IC50 [2] [nM]
"C=CC(=O)N1CCN(c2nc(OC[C@@H]3CCCN3C)nc3c2CCC(C)(c2cccc4ccccc24)O3)C[C@@H]1CC#N (stereo partly drawn) [Compound 6, 2-((2S)-1-acryloyl-4-(7-methyl-2-(((S)-1-methylpyrrolidin-2-yl)methoxy)-7-(naphthalen-1-yl)-6,7-dihydro-5H-pyrano[2,3-d]pyrimidin-4-yl)piperazin-2-yl)acetonitrile]",632,24100,–
"C=CC(=O)N1CCN(c2nc(OC[C@@H]3CCCN3C)nc3c2CC(C)C(c2cccc4ccccc24)O3)C[C@@H]1CC#N (single isomer, unassigned) [Compound 10b]",153,–,5230
"C=CC(=O)N1CCN(c2nc(OC[C@@H]3CCCN3C)nc3c2CC(F)(F)C(c2cccc4ccccc24)O3)C[C@@H]1CC#N (single isomer, unassigned) [Compound 7a]",13.8,–,394
"C=CC(=O)N1CCN(c2nc(OC[C@@H]3CCCN3C)nc3c2CC(C)C(c2cccc4ccccc24)O3)C[C@@H]1CC#N (single isomer, unassigned) [Compound 9b]",2130,–,21300
"C=CC(=O)N1CCN(c2nc(OC[C@@H]3CCCN3C)nc3c2CCC(c2cccc4ccc5[nH]ncc5c24)O3)C[C@@H]1CC#N (mixture of isomers) [Compound 12, 2-((2S)-4-(7-(3H-benzo[e]indazol-9-yl)-2-(((S)-1-methylpyrrolidin-2-yl)methoxy)-6,7-dihydro-5H-pyrano[2,3-d]pyrimidin-4-yl)-1-acryloylpiperazin-2-yl)acetonitrile]",87.1,18500,–
"C=CC(=O)N1CCN(c2nc(OC[C@@H]3CCCN3C)nc3c2CCC(c2c(Cl)c(C)cc4[nH]ncc24)O3)C[C@@H]1CC#N (single isomer, unassigned) [Compound 4a]",104,19200,–
"C=CC(=O)N1CCN(c2nc(OC[C@@H]3CCCN3C)nc3c2CC(C)C(c2cccc4ccccc24)O3)C[C@@H]1CC#N (single isomer, unassigned) [Compound 9a]",259,–,13200
"C=CC(=O)N1CCN(c2nc(OC[C@@H]3CCCN3C)nc3c2CCC(c2cccc4cc(O)ccc24)O3)C[C@@H]1CC#N (single isomer, unassigned) [Compound 8a]",817,26200,–
"C=CC(=O)N1CCN(c2nc(OC[C@@H]3CCCN3C)nc3c2CCC(c2cccc4ccccc24)O3)C[C@@H]1CC#N (single isomer, unassigned) [Compound 1a]",11.4,–,578
"C=CC(=O)N1CCN(c2nc(OC[C@@H]3CCCN3C)nc3c2CCC(c2cccc4c(F)cccc24)O3)C[C@@H]1CC#N (single isomer, unassigned) [Compound 5b]",195,–,10300
"C=CC(=O)N1CCN(c2nc(OC[C@@H]3CCCN3C)nc3c2CCC(c2cccc4c(F)cccc24)O3)C[C@@H]1CC#N (single isomer, unassigned) [Compound 5a]",88.6,6350,–
"C=CC(=O)N1CCN(c2nc(OC[C@@H]3CCCN3C)nc3c2CCC(c2cccc4ccccc24)O3)C[C@@H]1CC#N (single isomer, unassigned) [Compound 1b]",395,–,9020
"C=CC(=O)N1CCN(c2nc(OC[C@@H]3CCCN3C)nc3c2CCC(c2c(Cl)c(C)cc4[nH]ncc24)O3)C[C@@H]1CC#N (single isomer, unassigned) [Compound 4b]",2690,–,30000
"C=CC(=O)N1CCN(c2nc(OC[C@@H]3CCCN3C)nc3c2CC(C)C(c2cccc4ccccc24)O3)C[C@@H]1CC#N (single isomer, unassigned) [Compound 10a]",12.9,–,704
"C=CC(=O)N1CCN(c2nc(OC[C@@H]3CCCN3C)nc3c2CCC(c2c(O)cccc2F)O3)C[C@@H]1CC#N (mixture of isomers) [Compound 3, 2-((2S)-1-acryloyl-4-(7-(2-fluoro-6-hydroxyphenyl)-2-(((S)-1-methylpyrrolidin-2-yl)methoxy)-6,7-dihydro-5H-pyrano[2,3-d]pyrimidin-4-yl)piperazin-2-yl)acetonitrile]",793,15700,–
"C=CC(=O)N1CCN(c2nc(OC[C@@H]3CCCN3C)nc3c2CC(F)(F)C(c2cccc4ccccc24)O3)C[C@@H]1CC#N (single isomer, unassigned) [Compound 7b]",84.8,–,2380
"C=CC(=O)N1CCN(c2nc(OC[C@@H]3CCCN3C)nc3c2CCC(c2cccc4cccc(C)c24)O3)C[C@@H]1CC#N (mixture of isomers) [Compound 2, 2-((2S)-1-acryloyl-4-(7-(8-methylnaphthalen-1-yl)-2-(((S)-1-methylpyrrolidin-2-yl)methoxy)-6,7-dihydro-5H-pyrano[2,3-d]pyrimidin-4-yl)piperazin-2-yl)acetonitrile]",17.5,501,–
"C=CC(=O)N1CCN(c2nc(C(=O)N[C@H](C)CN(C)C)nc3c2CCC(c2cccc4ccccc24)O3)C[C@@H]1CC#N (mixture of isomers) [Compound 11, 4-((S)-4-Acryloyl-3-(cyanomethyl)piperazin-1-yl)-N-((R)-1-(dimethylamino)propan-2-yl)-7-(naphthalen-1-yl)-6,7-dihydro-5H-pyrano[2,3-d]pyrimidine-2-carboxamide]",1410,21700,–
